The results in this text go back to ChEMBL document CHEMBL1201862, “PubChem BioAssay data set” (2004).

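All cell lines were grown in 96-well plates and treated with compound for 48 hours. Abbreviation: GI50, concentration required for 50% inhibition of growth.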 Activity calls are given as the source filed them. Rule as the data show it: active = GI50 up to about 1.1 µM and inactive = higher.

Experiment in all cases: NCI tumour cell line growth inhibition, 48 h
Experiment [1] relates to A549.
The subject of experiment [2] is HOP-92.
The test system of experiment [3] is HT-29.
In experiment [4] the test system is KM12.
Experiment [5] relates to M14.
Experiment [6] concerns NCI-H23.
Experiment [7] has as its system OVCAR-3.
Experiment [8] deals with OVCAR-8.
For experiment [9], the system named is RXF 393.
In experiment [10] the test system is SF-295.
For experiment [11], the system named is SN12C.
The subject of experiment [12] is SNB-75.
The test system of experiment [13] is SR.
Experiment [14] deals with SW-620.
In experiment [15] the test system is T47D.
In experiment [16] the test system is TK-10.
Experiment [17] deals with UO-31.
Experiment [18] concerns NCI-H226.
Experiment [19] relates to SF-539.
For experiment [20], the system named is HL-60.

Take `NC(CC1=CCC=CC1)C(=O)O` (stereo unspecified): the GI50 in experiment [1] was 74.5 µM (inactive); in [2], > 100 µM (inactive); in experiment [3], 61.9 µM (inactive); in experiment [4], 68.2 µM (inactive); in experiment [5], 80.2 µM (inactive); in experiment [6], > 100 µM (inactive). Moreover, the GI50 in experiment [7] was 51.5 µM (inactive); in experiment [8], 67.1 µM (inactive); in experiment [9], 70.5 µM (inactive); in experiment [10] it was 60.3 µM (inactive); in experiment [11], > 100 µM (inactive); in experiment [12] it was 99.5 µM (inactive). Further, the GI50 was > 10 µM (inactive) in experiment [13]; > 100 µM (inactive) in experiment [14]; > 100 µM (inactive) in experiment [15]; > 100 µM (inactive) in experiment [16]; > 100 µM (inactive) in [17].

With `O=c1c2sc3nc(NCCN4CCCCC4)ncc3c2ncn1-c1ccccc1`, the GI50 in [1] was 40.6 µM (inactive); in [2], 27.3 µM (inactive); in experiment [3], 30.5 µM (inactive); in experiment [4], > 100 µM (inactive); in experiment [5] it was 19.6 µM (inactive); in experiment [18] it was 93.8 µM (inactive). The GI50 in [6] was > 100 µM (inactive); in [7], > 100 µM (inactive); in experiment [8] it was 45.5 µM (inactive); in [9], 20.6 µM (inactive); in [10], 61.8 µM (inactive); in experiment [11], > 100 µM (inactive). Besides, the GI50 in experiment [12] was 45.3 µM (inactive); in [13], > 100 µM (inactive); in [14], 46.7 µM (inactive); in experiment [15], 35.8 µM (inactive); in [16] it was 48.3 µM (inactive); in [17], 19.7 µM (inactive).

Regarding `Nc1nc(O)c2nc3c(nc2n1)C(=O)N(c1ccc(C(=O)O)cc1)C3`, the GI50 in [1], in experiment [2], in experiment [3], in [4], in experiment [5] and in experiment [18] was > 100 µM (inactive) each time. For the same compound, the GI50 in [6], in [8], in experiment [9], in [10], in [19] and in experiment [11] was > 100 µM (inactive) each time. For the same compound, the GI50 in experiment [12], in [13], in [14], in [15], in experiment [16] and in experiment [17] was > 100 µM (inactive) in each case.

Regarding `C[Si](C)(C)OC1c2[nH]c3ccccc3c2CN2C(=O)CCC12` (stereo unspecified), the GI50 in experiment [1], in [20], in [2], in experiment [3], in experiment [4] and in [5] was > 100 µM (inactive) in each case. Besides, the GI50 in [18], in experiment [7], in [8], in experiment [19], in experiment [11] and in experiment [12] was > 100 µM (inactive) each time. Further, the GI50 in experiment [13], in experiment [14], in experiment [15], in experiment [16] and in experiment [17] was > 100 µM (inactive) in each case.

Take `CCOP(=O)(OCC)C(C(=O)OC)C(=O)C(=O)Nc1cccc(O)c1` (stereo unspecified): the GI50 in [1], in experiment [2], in experiment [3], in [4], in experiment [5] and in experiment [18] was > 100 µM (inactive) each time. Also, the GI50 in [6], in [7], in experiment [8], in [9], in [10] and in [19] was > 100 µM (inactive) in each case. Moreover, the GI50 in [11], in [12], in [13], in experiment [14], in [15] and in experiment [16] was > 100 µM (inactive) in each case. Moreover, the GI50 in [17] is > 100 µM (inactive).

Regarding `Cc1cc2c(cc1-c1cc3c(cc1C)C(C(C)C)=C(O)C(=O)/C3=C\Nc1c(C)n(C)n(-c3ccccc3)c1=O)/C(=C/Nc1c(C)n(C)n(-c3ccccc3)c1=O)C(=O)C(O)=C2C(C)C`, the GI50 in experiment [1] is 40.1 µM (inactive); in experiment [20] it was 33.9 µM (inactive); in experiment [2] it was 78.2 µM (inactive); in experiment [3], > 100 µM (inactive); in experiment [4], 71.6 µM (inactive); in [5], 50.1 µM (inactive). Further, the GI50 in experiment [18] was 98.2 µM (inactive); in experiment [6], > 100 µM (inactive); in experiment [7], 50.2 µM (inactive); in [8] it was 82 µM (inactive); in [9], 26.1 µM (inactive); in experiment [10], > 100 µM (inactive). Further, the GI50 was 48.1 µM (inactive) in [19]; > 100 µM (inactive) in [11]; > 100 µM (inactive) in [12]; 39.2 µM (inactive) in experiment [13]; 61.9 µM (inactive) in experiment [14]; > 100 µM (inactive) in experiment [15]. Moreover, the GI50 in [17] was > 100 µM (inactive).

`Cc1ccc(S(=O)(=O)N/N=C2\CCC3(O)CC2(C)CCC2C3CC2(C)C)cc1` (stereo unspecified): the GI50 in experiment [1] was 33.4 µM (inactive); in experiment [20], > 100 µM (inactive); in [2] it was 28.4 µM (inactive); in experiment [3] it was 34.4 µM (inactive); in [4], 35.6 µM (inactive); in [5], 47.9 µM (inactive). Also, the GI50 in [18] was 27.4 µM (inactive); in [6] it was 49.5 µM (inactive); in [7], 37.8 µM (inactive); in experiment [8], 43.8 µM (inactive); in experiment [9], 52.8 µM (inactive); in [10], 33 µM (inactive). The GI50 is 51.1 µM (inactive) in experiment [19]; 57.8 µM (inactive) in [11]; > 100 µM (inactive) in experiment [13]; 78 µM (inactive) in experiment [14]; 35.1 µM (inactive) in [15]; 29.2 µM (inactive) in [16]. Also, the GI50 in [17] was 24.4 µM (inactive).

Turning to `O=C(N/N=C/c1ccccc1O)c1ccccc1Nc1ccccc1C(=O)N/N=C/c1ccccc1O`, the GI50 in experiment [1] was 1.62 µM (inactive); in [20] it was 1.69 µM (inactive); in [2] it was 2.26 µM (inactive); in experiment [3], 0.518 µM (active); in experiment [4], 1.38 µM (inactive); in experiment [5], 0.953 µM (active). Moreover, the GI50 in experiment [18] is 0.403 µM (active); in [6], 1.84 µM (inactive); in experiment [7], 0.0546 µM (active); in experiment [8], 0.647 µM (active); in experiment [10], 0.975 µM (active); in [19] it was 2.19 µM (inactive). In addition, the GI50 was 3.09 µM (inactive) in [12]; 0.566 µM (active) in experiment [13]; 0.859 µM (active) in experiment [15]; 5.87 µM (inactive) in [16]; 0.411 µM (active) in [17].

Turning to `CCc1cccc(C(C)(C)C)c1NC(=S)N/C=C(/C#N)C(N)=O`, the GI50 in experiment [1] is > 100 µM (inactive); in experiment [20], 93.1 µM (inactive); in experiment [2], 14 µM (inactive); in [3], > 100 µM (inactive); in [4] it was > 100 µM (inactive); in experiment [5], > 100 µM (inactive). Moreover, the GI50 in [18] is > 100 µM (inactive); in experiment [6], > 100 µM (inactive); in experiment [7], 92.7 µM (inactive); in [8], > 100 µM (inactive); in experiment [9], > 100 µM (inactive); in experiment [10], > 100 µM (inactive). Further, the GI50 in experiment [19] is > 100 µM (inactive); in experiment [11] it was > 100 µM (inactive); in experiment [12], 30.9 µM (inactive); in [13] it was > 10 µM (inactive); in experiment [14], > 100 µM (inactive); in [15] it was 95.5 µM (inactive). For the same compound, the GI50 in experiment [17] was 31.3 µM (inactive).

For `Cc1cc(C(C)(C)C)c(OCCCN2CCOCC2)c(C(C)(C)C)c1`, the GI50 in experiment [1] was 17.5 µM (inactive); in [20] it was 14.1 µM (inactive); in [2], 20.4 µM (inactive); in experiment [3], 16.3 µM (inactive); in [4], 17.5 µM (inactive); in experiment [5], 16.8 µM (inactive). Moreover, the GI50 in [6] was 17.5 µM (inactive); in experiment [7], 19.2 µM (inactive); in experiment [8], 20.2 µM (inactive); in [9] it was 16 µM (inactive); in [10] it was 17.5 µM (inactive); in experiment [19], 18.7 µM (inactive). Besides, the GI50 in [11] is 17.8 µM (inactive); in [12], 16.7 µM (inactive); in experiment [13], 17.7 µM (inactive); in experiment [14], 16.9 µM (inactive); in [15] it was 15.1 µM (inactive); in experiment [16], 19.3 µM (inactive). In experiment [17], the GI50 is 18.3 µM (inactive).

With `FC(F)(F)c1ccc(C2ON=C(c3ccccc3)N2C23CC4CC(CC(C4)C2)C3)cc1` (stereo unspecified), the GI50 in experiment [1], in experiment [20], in experiment [2], in [3], in experiment [4] and in experiment [5] was > 10 µM (inactive) in each case. In addition, the GI50 in experiment [18], in [6], in [7], in experiment [8], in experiment [9] and in [10] was > 10 µM (inactive) throughout. Also, the GI50 in experiment [19], in experiment [11], in [12], in experiment [13], in [14] and in experiment [15] was > 10 µM (inactive) throughout. For the same compound, in [16], the GI50 is > 10 µM (inactive).
